# Reference: patent US9724309B2, “Film-form preparation and method for producing the same” (NITTO DENKO CORPORATION, priority 2010, dated 2017)
# Assay: Particle size of drug particles by electron microscope
# Format: physicochemical
# Conditions: 200 particles
# Procedure: The various drug particles used in the Examples and Comparative Examples were obtained passing the powder through a 32 μm, 53 μm, 90 μm sieve after pulverization, or obtained fine particles by a jet mill (product of Hosokawa Micron Group, spiral jet mill model 50AS) or a spray dryer (product of Büchi Labortechnik AG, mini spray dryer model B-290) after pulverization. The particle sizes of these drug particles were measured by electron microscope (product of Hitachi High-Technologies Corp., model TM-1000) and the 50 vol % average particle size was calculated from the measurement results of 200 particles. This value was used as the particle size index of the particles.
row,SMILES,50 vol % average particle size
1,"N[C@@H](CCC(=O)N[C@@H](CS)C(=O)NCC(=O)O)C(=O)O [Glutathione (reduced form) particles, Glutathione (reduced form)]",5.3 um
2,"COc1cc(S(=O)(=O)[O-])ccc1O.O.[K+] [Potassium guaiacolsulfonate particles B, Potassium guaiacolsulfonate]",40.4 um
3,"COc1cc(S(=O)(=O)[O-])ccc1O.O.[K+] [Potassium guaiacolsulfonate particles A, Potassium guaiacolsulfonate]",2.1 um
4,"COc1cc(S(=O)(=O)[O-])ccc1O.O.[K+] [Potassium guaiacolsulfonate particles, Potassium guaiacolsulfonate]",5.0 um
5,"COc1cc(S(=O)(=O)[O-])ccc1O.O.[K+] [Potassium guaiacolsulfonate particles C, Potassium guaiacolsulfonate]",80.4 um
6,"Cn1c(=O)c2[nH]cnc2n(C)c1=O [Aminophyllin particles, Aminophyllin]",4.3 um
